Test results from PubChem BioAssay AID256 (DTP/NCI, 2004).
“And” between values parts separate entries of the source, which are not always exact repeats. Identical values can stand only once. Toxic doses and inconclusive results are not listed. Rule for the calls: active = survival T/C of 150% or more; inactive = T/C below 125% in these data.

System: CD2F1 mice, L1210 leukemia ip, survival T/C
Assay: NCI In Vivo Anticancer Drug Screen. Data for tumor model L1210 Leukemia (intraperitoneal) in CD2F1 (CDF1) mice
Conditions: endpoint: mean survival time, higher = longer survival
In short: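 Read-out first: treated-group measurement over vehicle-control measurement, expressed as a ratio. Animals bore a transplanted tumor line and were dosed with compound or vehicle.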

[1] = dose: 50.0 mg/kg/injection, schedule: Q01DX009 (ip), vehicle: saline with Tween-80
[2] = dose: 100.0 mg/kg/injection, schedule: Q01DX009 (ip), vehicle: saline with Tween-80
[3] = dose: 200.0 mg/kg/injection, schedule: Q01DX009 (ip), vehicle: saline with Tween-80
[4] = dose: 100.0 mg/kg/injection, schedule: Q04DX002 (ip), vehicle: saline with Tween-80
[5] = dose: 200.0 mg/kg/injection, schedule: Q04DX002 (ip), vehicle: saline with Tween-80
[6] = dose: 400.0 mg/kg/injection, schedule: Q01DX009 (ip), vehicle: saline with Tween-80
[7] = dose: 25.0 mg/kg/injection, schedule: Q04DX002 (ip), vehicle: saline with Tween-80

Measured: T/C

CC1CN1CCCNC(=O)C(=O)NCCCN1CC1C (stereo not given)
active: dose: 100.0 mg/kg/injection, schedule: Q01DX001 (ip), vehicle: saline 182 % of control

CC(=O)Oc1c[nH]c(=O)[nH]c1=O
inactive: dose: 12.5 mg/kg/injection, schedule: Q01DX009 (ip), vehicle: distilled water + Tween-80 97 % of control and 112 % of control | dose: 25.0 mg/kg/injection, schedule: Q01DX009 (ip), vehicle: distilled water + Tween-80 97 % of control and 98 % of control | dose: 50.0 mg/kg/injection, schedule: Q01DX009 (ip), vehicle: distilled water + Tween-80 102 % of control and 110 % of control | dose: 100.0 mg/kg/injection, schedule: Q01DX009 (ip), vehicle: distilled water + Tween-80 114 % of control and 105 % of control | dose: 200.0 mg/kg/injection, schedule: Q01DX009 (ip), vehicle: distilled water + Tween-80 114 % of control and 105 % of control | dose: 400.0 mg/kg/injection, schedule: Q01DX009 (ip), vehicle: distilled water + Tween-80 117 % of control and 124 % of control

CCCC/C=C/C=C/CCCC
inactive: [1] 103 % of control | [2] 92 % of control | [3] 107 % of control

COc1ccccc1NC(=O)Oc1cccc(C)c1
inactive: [4] 91 % of control | [5] 88 % of control | dose: 400.0 mg/kg/injection, schedule: Q04DX002 (ip), vehicle: saline with Tween-80 91 % of control

O=P(Oc1ccccc1)(Oc1ccccc1)C(Nc1ccccc1)c1ccccc1 (stereo not given)
inactive: [2] 88 % of control | [3] 97 % of control | [6] 89 % of control

Cc1ccc(NC(=O)OCCSCCOC(=O)Nc2ccc(C)cc2)cc1
inactive: dose: 100.0 mg/kg/injection, schedule: Q04DX003 (ip), vehicle: other 93 % of control | dose: 200.0 mg/kg/injection, schedule: Q04DX003 (ip), vehicle: other 96 % of control | dose: 400.0 mg/kg/injection, schedule: Q04DX003 (ip), vehicle: other 93 % of control

CNC1=C(C)C(=O)C2=C(C1=O)C(COC(N)=O)C1(OC)C3NC3CN21 (stereo not given)
inactive: dose: 1.5 mg/kg/injection, schedule: Q01DX001 (ip), vehicle: water 102 % of control | dose: 3.0 mg/kg/injection, schedule: Q01DX001 (ip), vehicle: water 100 % of control | dose: 6.0 mg/kg/injection, schedule: Q01DX001 (ip), vehicle: water 108 % of control | dose: 12.0 mg/kg/injection, schedule: Q01DX001 (ip), vehicle: water 118 % of control | dose: 24.0 mg/kg/injection, schedule: Q01DX001 (ip), vehicle: water 124 % of control

N#CC1C2CCC(O2)C1C(=O)OCc1ccccc1 (stereo not given)
inactive: dose: 25.0 mg/kg/injection, schedule: Q01DX009 (ip), vehicle: saline with Tween-80 102 % of control | [7] 106 % of control | [1] 102 % of control | dose: 50.0 mg/kg/injection, schedule: Q04DX002 (ip), vehicle: saline with Tween-80 101 % of control | [2] 102 % of control | [4] 101 % of control | [5] 89 % of control

CCCCCC(CN(C)C)C(=O)/C=C/c1c(Cl)cccc1Cl (stereo not given)
inactive: dose: 6.25 mg/kg/injection, schedule: Q01DX009 (ip), vehicle: other 101 % of control | dose: 12.5 mg/kg/injection, schedule: Q01DX009 (ip), vehicle: other 101 % of control | dose: 25.0 mg/kg/injection, schedule: Q01DX009 (ip), vehicle: other 104 % of control | dose: 100.0 mg/kg/injection, schedule: Q01DX001 (ip), vehicle: Klucel (hydroxypropylcellulose) (HPC) 94 % of control

O=C(O)c1ccccc1C(=O)OC1CCC2CCCCC2C1 (stereo not given)
inactive: [2] 98 % of control | dose: 100.0 mg/kg/injection, schedule: Q04DX003 (ip), vehicle: saline with Tween-80 97 % of control | [3] 95 % of control | dose: 200.0 mg/kg/injection, schedule: Q04DX003 (ip), vehicle: saline with Tween-80 92 % of control | [6] 98 % of control | dose: 400.0 mg/kg/injection, schedule: Q04DX003 (ip), vehicle: saline with Tween-80 101 % of control

Cc1ccc(C(C)C)c(OCC[N+]2(CCOc3cc(C)ccc3C(C)C)CC=CC2)c1
inactive: dose: 6.25 mg/kg/injection, schedule: Q04DX002 (ip), vehicle: saline with Tween-80 100 % of control | dose: 12.5 mg/kg/injection, schedule: Q04DX002 (ip), vehicle: saline with Tween-80 94 % of control | [7] 100 % of control

CC(=O)N(C)c1ccc(NC(=O)Nc2ccc(C)c(C)c2)cc1
inactive: [1] 91 % of control | [2] 91 % of control | [3] 88 % of control

CCC(C)(C)N
inactive: dose: 100.0 mg/kg/injection, schedule: Q04DX003 (ip), vehicle: saline 100 % of control | dose: 200.0 mg/kg/injection, schedule: Q04DX003 (ip), vehicle: saline 106 % of control | dose: 400.0 mg/kg/injection, schedule: Q04DX003 (ip), vehicle: saline 103 % of control
